Measurements: patent US6949558B2, “Enhancement of taxane-based chemotherapy by a CDK1 antagonist” (Yale University, priority 2001, dated 2005)

Assays:
[1] = system: survivin expression in PC3 cells; experiment: Survivin expression by Western blotting in PC3 cells; type: cell-based; settings: taxol
[2] = system: survivin RNA in HeLa cells; experiment: Northern hybridization of survivin RNA in HeLa cells; type: cell-based, human; settings: presence or absence of taxol
HT2-19 cells = experiment: Apoptosis and cell cycle in HT2-19 cells with conditional inactivation of p34^cdc2; type: cell-based; settings: taxol 0.2 μM
Excerpt: Cell Cultures and Antibodies: Breast carcinoma MCF-7, prostate carcinoma PC3, and cervical carcinoma HeLa cells (American Type Culture Collection, Manassas, Va.) were maintained in culture according to the supplier's recommendations. HT2-19 cells with conditional inactivation of the p34^cdc2 gene were described previously (J. E. Itzhaki et al. (1997) Nat. Gen. 15: 258-265). In this cell line, removal of IPTG from the culture medium results in inactivation of the second p34^cdc2 allele (J. E. Itzhaki et al. (1997) Nat. Gen. 15: 258-265). For spindle checkpoint activation, the various cell types were treated with taxol (0.2-2 μM, Sigma Chemical Co., St. Louis, Mo.), vincristine (100 nM, Sigma) or cisplatin (3 μM, Sigma) for 16 h at 37° C. For genetic ablation of p34^cdc2, HT2-19 cells were washed and cultivated in the absence of IPTG for 48-72 h before analysis of apoptosis (see below) or expression of survivin or p34^cdc2, by Western blotting. In some experiments, taxol (0.2 μM) was added to HT2-19 cells simultaneously with the withdrawal of IPTG, and cells were processed as described above. […] For viral transduction, HT2-19 cells in the absence of IPTG were infected with pAd-GFP or pAd-Survivin at multiplicity of infection (m.o.i.) of 50, and analyzed after a 48-72 h culture for changes in cell cycle progression and apoptosis. […]

caspase-9 = experiment: Caspase-9 processing by Western blotting in HeLa cells; settings: taxol 0.2 μM, Purvalanol A 20 μM or sequential combination, 16 h
[3] = system: survivin expression in MCF-7 cells; experiment: Survivin expression by Western blotting in MCF-7 cells; type: cell-based, human; settings: taxol 2 μM (FIG. 19A)
HeLa cells = experiment: Apoptosis by DNA content analysis and flow cytometry in HeLa cells; type: cell-based, human; settings: HeLa
Protocol: Cervical carcinoma HeLa (functionally inactivated p53) cells or breast carcinoma MCF-7 (wild type p53) cells were plated at 50-60% confluency in C-6 wells. Cells were treated with taxol at 0.2 μM for 0 to 32 hours in complete media.
(§1) After 4, 8, 16, and 32 hours of incubation, without removing taxol from the wells, purvalanol A was added at three increasing concentrations, 1, 10 and 20 uM (FIG. 1). A control was performed with addition of purvalanol A at the 0-h time point.
(§2) The cell populations were harvested at increasing time intervals from the 0-h time point or corresponding to the addition of purvalanol A. Apoptosis was analyzed by DNA content analysis and flow cytometry (DAPI staining).

MCF-7 cells = experiment: Apoptosis by DNA content analysis and flow cytometry in MCF-7 cells; type: cell-based, human
Protocol: Cervical carcinoma HeLa (functionally inactivated p53) cells or breast carcinoma MCF-7 (wild type p53) cells were plated at 50-60% confluency in C-6 wells. […]
as §1, §2

[4] = taxol 2 μM, adriamycin 100 nM, cis-platin 3 μM (Example 7)

CC(=O)O[C@H]1C(=O)[C@@]2(C)[C@H]([C@H](OC(=O)c3ccccc3)[C@]3(O)C[C@H](OC(=O)[C@H](O)[C@@H](NC(=O)c4ccccc4)c4ccccc4)C(C)=C1C3(C)C)[C@]1(OC(C)=O)CO[C@@H]1C[C@@H]2O [taxol, Paclitaxel]
survivin expression [1]: increased expression of survivin
survivin RNA levels [2]: no significant changes in survivin RNA levels
cell cycle arrest (HT2-19 cells; HT2-19, p34^cdc2 +/− (IPTG present)): homogeneous mitotic arrest
apoptosis vs untreated IPTG− cultures (HT2-19 cells; IPTG− HT2-19 cells (p34^cdc2 −/−)): considerably increased apoptosis
caspase-9 processing (caspase-9): did not result in significant caspase-9 cleavage
increased expression of survivin [3]: 3-4 fold
cell population with hypodiploid (apoptotic) DNA content / cell death (HeLa cells; 16 h, taxol 0.2 μM, Purvalanol A 20 μM, alone or sequential): 16%
hypodiploid cells (HeLa cells; taxol 0.2 μM alone (Example 1)): ~10%
apoptosis (hypodiploid cell fraction) (HeLa cells; taxol 0.2 μM for 0 to 32 hours): virtually no apoptosis
cell cycle arrest (HeLa cells; taxol 0.2 μM or purvalanol A 1-20 uM alone (Examples 1, 2)): uniform M arrest
apoptosis (HeLa cells; taxol 0.2 μM, up to 32 h (Example 8)): negligible induction of apoptosis
apoptosis (hypodiploid cell fraction) (MCF-7 cells; taxol 0.2 μM for 0 to 32 hours): virtually no apoptosis
cell cycle arrest (MCF-7 cells; taxol 0.2 μM for 0 to 32 hours): uniform M arrest
apoptosis (MCF-7 cells; [4]): negligible apoptosis
cell cycle arrest (MCF-7 cells; [4]): G2/M arrest
cell cycle arrest (MCF-7 cells; taxol 0.2-2 μM (Example 8)): sustained (48-72 h) mitotic arrest
